In patent US8476255B2, “Histone deacetylase inhibitors” (Orchid Chemicals & Pharmaceuticals Limited, priority 2007, dated 2013):

Key:
[1] = tested on: p21; test: p21 induction, sandwich ELISA in HCT116 lysate; type: cell-based; settings: HCT116, 18 hours
Procedure: (§1) Acetylated histone (H3), acetylated Tubulin and p21 levels were detected in cell lysate by sandwich ELISA method (Cell Signaling Technology, USA, Cat No: 7232, 7204 & 7167 respectively) by following manufacturer's instructions. Briefly, colon cancer cells (HCT116. 10,000/well) were incubated with test compound (1 and 10 μM) or medium (control) for 4 hours at 37° C. in CO2 incubator. The incubation lasted 18 hours for p21 induction. After incubation, cell lysates were prepared in cell lysis buffer by sonication on ice. The lysates were collected after centrifugation and subjected to ELISA test procedure. 100 μL of each diluted cell lysate in dilution buffer (1:1) was added to appropriate capture antibody coated microwells and incubated overnight at 4° C. After washing, 100 μL of detection antibody was added for 1 hour at 37° C. After second washing, 100 μL of HRP-linked secondary antibody was added for 30 min at 37° C. Finally, after appropriate washing, 100 μL of TMB substrate was added for 10 min at 37° C. followed by 100 μL of stop solution. The absorbance of individual wells was read using a spectrophotometer at 450 nm (A450).

[2] = tested on: acetylated Tubulin; test: Tubulin acetylation, sandwich ELISA in HCT116 lysate; type: cell-based; settings: HCT116, 4 hours
Procedure: as §1

[3] = tested on: NCIH460 (lung) cells; test: Anti-cancer screen (MTT), NCIH460; type: cell-based; settings: Homo sapiens, NCI-H460, NCIH460, 48 hours, MTT
Procedure, shortened: (§2)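 Seeding at 5×10^4 cells/mL preceded 24 h culture, after which compounds diluted from DMSO stocks were added at final 0.01, 0.1, 1, 10 and 100 μM for 48 h. Viability was then read by MTT (3 h, 37 °C) at A570.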

[4] = tested on: HDAC (Mouse Liver Extract); test: HDAC inhibition assay using Boc-Lys(Ac)-AMC substrate; type: biochemical; settings: mouse liver enzyme
Procedure, shortened: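 Boc-Lys(Ac)-AMC substrate incubated with mouse liver extract as HDAC source, 5 min preincubation then 30 min at 37° C. Trypsin stop solution added (37° C., 15-30 min) to release AMC, read at ex 360/em 460 nm; buffer-only and substrate-only wells as blanks.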

[5] = tested on: HCT116 (colon) xenograft; type: in vivo; settings: oral gavage once every day for 21 days, vs vehicle treated control
Procedure: Experiments were carried out using 6-8 week old female athymic SCID (Severe Combined Immune Deficient) mice. The mice were housed in Individually Ventilated Cages (IVC) at constant temperature (22±3° C.) and humidity (50±20%). They had free access to food and water. Tumors were obtained from ATCC, USA and maintained in vivo by subcutaneous (s.c.) passage of tumor fragments (appx 30 mg) in healthy mice according to standard reported procedures. All the animal protocols were approved by the Institutional Animal Ethics Committee, ORLL, Chennai. Each experimental group included 6-8 mice bearing s.c. tumors. Tumors were implanted into the axillary region by puncturing using a Trocar, and tumor growth was monitored by measurement of tumor diameters with a Vernier caliper. Tumor Volume (TV) was calculated according to the following formula: TV(mm^3)=L×W^2×0.5, […]
Test compound was administered by oral gavage in a volume of 5-10 ml/kg. […] Tumor size was measured twice every week and body weight was recorded daily prior to dosing.
Test compound (T) efficacy was assessed by calculating several parameters based on tumor volume (TV) with respect to untreated control (C). Parameters routinely assessed were T/C % [TVtest/TVcontrol×100] and Tumor Volume Inhibition (TVI=1−T/C %). […]
Toxic effects of drug treatment were assessed by Body Weight Loss %. […]

[6] = tested on: NCIH460, HCT116 and U251 cells; test: Anti-cancer screen, mean GI50 over cell lines; type: cell-based; settings: mean over cell lines; read-out: Cell growth inhibition Mean GI50
Procedure, shortened: as §2

[7] = tested on: Acetylated histone (H3); test: Histone (H3) acetylation, sandwich ELISA in HCT116 lysate; type: cell-based; settings: HCT116, 4 hours
Procedure: as §1

Structure (SMILES): COc1ccc(/C=C(/C(=O)NCc2ccc(C(=O)Nc3ccccc3N)cc2)c2ccc(F)cc2)cc1OC [Compound 19, N-(2-Aminophenyl)-4-((3-(3,4-dimethoxyphenyl)-2-(4-fluorophenyl)acrylamido)methyl)benzamide]
- P21 induction (Fold increase) ([1]; 1 μM): 1.6 Fold increase
- P21 induction (Fold increase) ([1]; 10 μM): 2.4 Fold increase
- Tubulin acetylation (Fold increase) ([2]; 1 μM): 1.9 Fold increase
- Tubulin acetylation (Fold increase) ([2]; 10 μM): 4.4 Fold increase
- GI50 ([3]; read-out: Cell growth inhibition NCIH460 (Lung) GI50): 2500 nM
- LC50 ([3]; read-out: Cell growth inhibition NCIH460 (Lung) LC50): 70 µM
- IC (TGI) ([3]; read-out: Cell growth inhibition NCIH460 (Lung) TGI): 8 µM
- HDAC inhibition % (1 μM) ([4]; 1 μM): 29.7%
- HDAC inhibition % (10 μM) ([4]; 10 μM): 52.9%
- IC50 [4]: 8.6 µM
- maximum Tumor Volume Inhibition (TVI) [5]: 42%
- GI50 [6]: 1000 nM
- H3 acetylation (Fold increase) ([7]; 1 μM): 4 Fold increase
- H3 acetylation (Fold increase) ([7]; 10 μM): 16 Fold increase
